Source: ChEMBL document CHEMBL1127552, “Approaches toward selective inhibition of nitric oxide synthase” (J Med Chem, 1994)
pIC50: −log10 of the molar value.

Experiments:
[1] = molecular target: T1, Nitric oxide synthase, inducible (Mus musculus, UniProt P29477); assay: Compound was tested for its inhibitory activity against macrophage NO2- synthesis
T1 sequence (P29477 whole entry): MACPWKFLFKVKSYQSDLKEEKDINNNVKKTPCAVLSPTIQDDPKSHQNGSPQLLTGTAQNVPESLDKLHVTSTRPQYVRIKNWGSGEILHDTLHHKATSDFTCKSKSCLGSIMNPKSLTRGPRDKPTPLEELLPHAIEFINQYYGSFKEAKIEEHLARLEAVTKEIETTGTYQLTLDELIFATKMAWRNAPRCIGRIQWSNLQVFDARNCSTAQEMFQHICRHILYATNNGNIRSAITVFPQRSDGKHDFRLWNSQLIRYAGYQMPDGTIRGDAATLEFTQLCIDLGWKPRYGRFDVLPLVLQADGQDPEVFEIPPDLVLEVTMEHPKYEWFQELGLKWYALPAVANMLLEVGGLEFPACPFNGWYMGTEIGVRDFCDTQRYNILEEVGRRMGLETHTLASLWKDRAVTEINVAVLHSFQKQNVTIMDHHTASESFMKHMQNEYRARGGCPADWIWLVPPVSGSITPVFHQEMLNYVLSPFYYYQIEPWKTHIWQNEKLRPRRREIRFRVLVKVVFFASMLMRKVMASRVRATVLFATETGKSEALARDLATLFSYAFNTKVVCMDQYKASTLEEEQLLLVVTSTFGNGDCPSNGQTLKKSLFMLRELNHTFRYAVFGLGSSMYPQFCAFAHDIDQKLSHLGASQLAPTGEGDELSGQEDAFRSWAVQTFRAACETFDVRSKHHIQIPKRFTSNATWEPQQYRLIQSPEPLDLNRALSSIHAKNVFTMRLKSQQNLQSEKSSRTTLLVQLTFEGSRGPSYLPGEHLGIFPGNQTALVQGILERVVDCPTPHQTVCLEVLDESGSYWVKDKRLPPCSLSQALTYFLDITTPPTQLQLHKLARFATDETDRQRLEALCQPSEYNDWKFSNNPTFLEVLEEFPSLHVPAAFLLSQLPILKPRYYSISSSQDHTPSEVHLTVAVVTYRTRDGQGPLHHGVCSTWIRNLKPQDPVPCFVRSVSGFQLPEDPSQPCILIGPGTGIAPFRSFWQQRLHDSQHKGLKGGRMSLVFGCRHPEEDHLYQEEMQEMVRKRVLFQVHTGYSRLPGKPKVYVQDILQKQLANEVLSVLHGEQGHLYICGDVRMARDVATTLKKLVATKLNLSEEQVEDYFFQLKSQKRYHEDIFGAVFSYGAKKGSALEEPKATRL

Nitric oxide synthase 3 = molecular target: T2, Nitric oxide synthase 3 (Bos taurus, UniProt P29473); assay: Compound was tested for its inhibitory activity against endothelial NO2- synthesis
T2 sequence (P29473 whole entry): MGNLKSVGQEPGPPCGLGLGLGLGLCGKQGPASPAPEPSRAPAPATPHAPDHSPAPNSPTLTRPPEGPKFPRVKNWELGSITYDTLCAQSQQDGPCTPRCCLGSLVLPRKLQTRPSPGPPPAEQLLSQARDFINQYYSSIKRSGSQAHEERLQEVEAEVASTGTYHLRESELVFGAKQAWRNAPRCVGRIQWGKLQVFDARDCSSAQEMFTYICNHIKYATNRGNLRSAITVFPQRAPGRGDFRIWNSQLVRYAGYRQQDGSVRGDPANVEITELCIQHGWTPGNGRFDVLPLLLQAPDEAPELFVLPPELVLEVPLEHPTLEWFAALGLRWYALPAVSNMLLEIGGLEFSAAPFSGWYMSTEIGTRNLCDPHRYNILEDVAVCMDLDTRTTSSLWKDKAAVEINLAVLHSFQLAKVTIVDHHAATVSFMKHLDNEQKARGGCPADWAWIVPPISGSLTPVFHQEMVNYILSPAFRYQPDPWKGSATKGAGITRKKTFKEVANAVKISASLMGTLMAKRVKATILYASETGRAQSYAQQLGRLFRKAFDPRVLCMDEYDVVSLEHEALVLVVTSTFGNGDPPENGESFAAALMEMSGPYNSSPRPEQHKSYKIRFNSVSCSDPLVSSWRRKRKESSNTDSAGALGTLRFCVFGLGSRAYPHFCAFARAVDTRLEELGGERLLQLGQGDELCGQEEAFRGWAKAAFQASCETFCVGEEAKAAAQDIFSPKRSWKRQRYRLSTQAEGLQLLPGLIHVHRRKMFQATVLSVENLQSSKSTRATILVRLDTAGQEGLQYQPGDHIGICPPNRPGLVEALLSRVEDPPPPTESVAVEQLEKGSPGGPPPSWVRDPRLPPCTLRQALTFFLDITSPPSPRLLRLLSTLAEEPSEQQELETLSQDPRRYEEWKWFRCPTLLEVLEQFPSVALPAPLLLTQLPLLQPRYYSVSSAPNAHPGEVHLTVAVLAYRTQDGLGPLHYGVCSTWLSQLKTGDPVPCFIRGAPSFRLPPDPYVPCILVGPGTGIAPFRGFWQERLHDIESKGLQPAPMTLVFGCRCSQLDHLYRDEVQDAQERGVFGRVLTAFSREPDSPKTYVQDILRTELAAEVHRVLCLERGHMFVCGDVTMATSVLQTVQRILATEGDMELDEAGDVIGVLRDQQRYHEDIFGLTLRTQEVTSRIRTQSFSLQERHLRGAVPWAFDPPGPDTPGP

Row | pIC50 [1] | Structure (SMILES) | pIC50 (Nitric oxide synthase 3)
1 | 4.22 | CNC(N)NCCCC(N)C(=O)O (configuration not stated) | –
2 | – | COC(=O)[C@@H](N)CCCNC(=N)N[N+](=O)[O-] [L-NAME] | 4.00
